Data set [1] is described as follows: Metabolite identification in human liver microsomes. It is filed as in vitro ADME. Particulars: metabolite +16 Da, seen at 45 and 90 min, not at 0 min. The procedure:
A total of 450 μL of human liver microsomes were spiked with 0.5 μL of the substrate TPB15 and incubated in a water bath at 37 °C for 10 min. The reaction was initiated by adding 50 μL of NADPH. Following incubation, 50 μL of the reaction mixture were transferred to 150 μL of ice-cold methanol to terminate the reaction. The mixture was then centrifuged at 14,800 rpm at 4 °C for 10 min. A volume of 5 μL of the supernatant was collected for analysis using a QTRAP 4000 mass spectrometer(AB Sciex, Framingham, MA, USA), with three parallel samples prepared for each time point. The primary mass spectrometry conditions were as follows: curtain gas at 30 psi, sprayer gas (GS1) at 50 psi, drier gas (GS2) at 50 psi, ion source temperature at 550 °C, and cluster-removal voltage at 100 V. The ion source (IS) spray voltage was set to 5500 V, with a focusing potential (FP) of 200 V, an entrance potential (EP) of 10 V, an exit potential (CXP) of 15 V, and a collision energy of 86 V for TPB15. Chromatographic separation was performed using an Agilent ZORBAX Stable Bond C18 column (50 mm × 2.1 mm i.d., 3.5 μm particle size) at a column temperature of 35 °C. The injection volume was 5 μL, and the elution was carried out in gradient mode. The mobile phase consisted of two components: mobile phase A (an aqueous solution with 0.1% formic acid) and mobile phase B (methanol). […]
(In general: Liver microsomes are a subcellular fraction often used to study metabolism.)

A short description of data set [2]: Plasma protein binding by ultrafiltration, rat plasma. Format: in vitro ADME, SD rat. As to the method: (§1) To prepare plasma samples of TPB15 at final concentrations of 4, 8, and 16 μg/mL, 1 μL of TPB15 dissolved in dimethyl sulfoxide (DMSO) at low (400 μg/mL), medium (800 μg/mL), and high (1600 μg/mL) concentrations was added to 99 μL of blank plasma obtained from humans, rats, mice, monkeys, and dogs. Each concentration was prepared in six replicates. The samples were then divided into two groups: one for determining the pre-ultrafiltration concentration (Cpre) and the other for measuring the post-ultrafiltration concentration (Ct), following the evaluation of the non-specific binding coefficient (NSB) of TPB15 to the ultrafiltration tubes. For Cpre determination, 10 μL of the sample was mixed with 990 μL of plasma, vortexed thoroughly, and analyzed for drug concentration using the previously reported liquid chromatography–tandem mass spectrometry (LC-MS/MS) method. For Ct determination, the samples were first incubated in a water bath at 37 °C for 3 h. After incubation, they were transferred to ultrafiltration tubes and centrifuged at 14,000 rpm for 20 min at 4 °C using a centrifuge (Sigma 3K-15) from Sigma Laborzentrifugen GmbH (Osterode am Harz, Germany). After centrifugation, 10 μL of the ultrafiltrate was mixed with 990 μL of plasma, vortexed, and analyzed for concentration using the same LC-MS/MS method. The formula for calculating the plasma protein binding rate (PPB) is as follows: PPB (%) = [1 − Ct/(1 − NSB)/Cpre] × 100%. (NSB: non-specific binding coefficient. […]).

Data set [3] is described as follows: Stability in monkey plasma. Format: in vitro ADME, cynomolgus monkey. Particulars: 37 °C, 453 μg/L. As to the method: A total of 696.5 μL of plasma from each species (healthy mice, rat, dog, monkey, and human) were spiked with 3.5 μL of TPB15 stock solution ([…] in DMSO), resulting in a final TPB15 concentration of 453 μg/L in plasma. The mixture was then aliquoted into three tubes, each with a volume of 200 μL, maintaining a final DMSO concentration of 0.5%. After incubation in a water bath at 37 °C for 0, 30, 60, 90, and 120 min, 100 µL samples were transferred into EP tubes. Subsequently, 10 µL of internal standard working solution were added, followed by vortex mixing. Then, 500 µL of ethyl acetate were added, and the mixture was vortexed again before being centrifuged at 14,800 rpm at 4 °C for 10 min. A total of 400 µL of the supernatant were transferred into a new EP tube and placed in a vacuum concentrator (Bionoon-VAC2) (Bionoon Biotech, Shanghai, China) to dry for 1 h. The dried residue was reconstituted with 100 µL of mobile phase, vortex mixed thoroughly, and centrifuged again at 14,800 rpm at 4 °C for 10 min. A volume of 5 µL of the supernatant was then taken for LC-MS/MS analysis to determine the drug concentration. Additionally, a blank control group was established, in which PBS buffer was used in place of blank plasma in the incubation system.

The nature of data set [4]: Metabolic stability in monkey liver microsomes (MLM). Format: in vitro ADME, crab-eating monkey. The procedure: A total of 450 μL liver microsomes from mice, rat, dog, monkey, and human were spiked with 0.5 μL of TPB15 solution and pre-incubated in a water bath at 37 °C for 10 min. Following this, 50 μL of NADPH were added to initiate the reaction. The concentrations of each substance in the incubation system are detailed in Table 1. After initiating the metabolic reaction, 50 μL aliquots were removed at incubation times of 0, 5, 15, 30, 45, 60, and 90 min and transferred to 150 μL of icy methanol solution containing the internal standard to terminate the reaction. The mixtures were swirled for 2 min and then centrifuged at 14,800 rpm at 4 °C for 10 min. […] Three samples were prepared in parallel at each time point. Additionally, both a positive control group and a blank control group were established. In the positive control group, substrate testosterone was incubated with liver microsomes from mice, rat, dog, monkey, and human. The concentrations of substrate testosterone were measured at 0 and 90 min, and the changes in concentration before and after incubation were compared to confirm the activity of the liver microsomes. The blank control group included one drug-containing inactivated liver microsome sample for each species. The metabolic stability parameters, including in vitro elimination half-life (T1/2) and in vitro intrinsic clearance rate (CLint), were calculated based on this graph using the following formulas: in vitro elimination half-life (T1/2) = −0.693/k and in vitro intrinsic clearance rate (CLint) = (0.693 × incubation medium (mL))/(liver microsomes (mg) × T1/2).

A short description of data set [5]: Plasma protein binding by ultrafiltration, dog plasma. Format: in vitro ADME. Particulars: beagle. The procedure: as §1

As for `O=C(Nc1ccc(Cl)c(-c2nnc3c(Cl)cccn23)c1)c1ccc(Cl)nc1Cl` [TPB15], in data set [1], the “metabolic reaction of TPB15 in human liver microsomes” value is given as “oxidation”. Also, the fraction unbound at 3 h lay within 0.176 to 0.191 in data set [2] (SD, rat plasma, 4 to 16 μg/mL, read-out: average plasma protein binding rates, range over concentrations) and 0.177 to 0.19 in data set [5] (dog plasma, 4 to 16 μg/mL, read-out: average plasma protein binding rates, range over concentrations). Further, the fraction unbound at 3 h, 4 μg/mL is 0.183 in data set [2] (Sprague-Dawley, rat, plasma, 4 μg/mL TPB15, ultrafiltration, 37 °C 3 h, read-out: Plasma Protein Binding (%) SD Rat (converted)) and 0.185 in data set [5] (dog, plasma, 4 μg/mL TPB15, ultrafiltration, 37 °C 3 h). Further, the fraction unbound at 3 h, 8 μg/mL was 0.191 in data set [2] (Sprague-Dawley, rat, plasma, 8 μg/mL TPB15, ultrafiltration, 37 °C 3 h, read-out: Plasma Protein Binding (%) SD Rat (converted)) and 0.19 in data set [5] (dog, plasma, 8 μg/mL TPB15, ultrafiltration, 37 °C 3 h). The fraction unbound at 3 h, 16 μg/mL is 0.176 in data set [2] (Sprague-Dawley, rat, plasma, 16 μg/mL TPB15, ultrafiltration, 37 °C 3 h, read-out: Plasma Protein Binding (%) SD Rat (converted)) and 0.177 in data set [5] (dog, plasma, 16 μg/mL TPB15, ultrafiltration, 37 °C 3 h). In addition, the “Remaining proportion of substrate TPB15 (%) Cynomolgus monkey” value in data set [3] (incubation 0 min) stood at 100.0 ± 1.7%; in data set [3] (incubation 30 min), 98.2 ± 0.6%; in data set [3] (incubation 60 min), 96.3 ± 1.2%; in data set [3] (incubation 90 min), 99.3 ± 0.9%; in data set [3] (incubation 120 min) it was 98.3 ± 1.5%. In data set [4] (MLM, 5 μM TPB15, 0.5 mg/mL microsomes), the “T1/2 (min), in vitro elimination half-life” value is 88.34 min. Moreover, in data set [4] (crab-eating monkey microsomes, 90 min, 5 μM TPB15, 0.5 mg/mL, NADPH 1 mM), the “remaining proportion of TPB15 in liver microsomes” value is 48.0 ± 2.86%. Besides, the microsomal CLint at 5 μM in data set [4] (monkey liver microsomes, MLM, 5 μM TPB15, 0.5 mg/mL microsomes, read-out: CLint (mL/min/mg), in vitro intrinsic clearance rate) came out at 0.0941 mL/min/mg. In addition, in data set [4] (monkey liver microsomes, MLM, 5 μM TPB15, 0.5 mg/mL microsomes, read-out: T1/2 (min), in vitro elimination half-life), the half-life at 5 μM amounted to 88 min.

The values are drawn from publication PMC12030497, “Plasma Protein Binding, Biostability, Metabolite Profiling, and CYP450 Phenotype of TPB15 Across Different Species: A Novel Smoothened Inhibitor for TNBC Therapy” (Pharmaceutics, 2025).
